Consider 2 compounds from ChEMBL document CHEMBL4627384, “l-Thyroxin and the Nonclassical Thyroid Hormone TETRAC Are Potent Activators of PPARγ” (J Med Chem, 2020).

Activity calls are given as the source filed them. The rule behind the calls is not given here.

Series [1] deals with T1, Peroxisome proliferator-activated receptor gamma (Mus musculus) (UniProt P37238).
T1 sequence (whole entry): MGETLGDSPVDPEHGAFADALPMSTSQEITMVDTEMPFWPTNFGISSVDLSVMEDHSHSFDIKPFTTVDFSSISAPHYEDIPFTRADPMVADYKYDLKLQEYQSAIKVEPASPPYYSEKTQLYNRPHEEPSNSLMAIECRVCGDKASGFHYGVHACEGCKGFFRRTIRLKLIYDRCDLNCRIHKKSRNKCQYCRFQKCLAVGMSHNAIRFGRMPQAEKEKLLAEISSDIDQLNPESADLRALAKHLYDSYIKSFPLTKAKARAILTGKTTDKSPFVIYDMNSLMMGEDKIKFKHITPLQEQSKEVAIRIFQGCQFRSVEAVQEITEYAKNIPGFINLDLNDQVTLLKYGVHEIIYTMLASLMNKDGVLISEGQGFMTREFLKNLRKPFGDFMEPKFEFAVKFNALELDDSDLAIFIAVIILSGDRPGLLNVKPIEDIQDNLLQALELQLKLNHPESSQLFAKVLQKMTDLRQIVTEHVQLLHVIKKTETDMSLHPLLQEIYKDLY
Description: Agonist activity at PPARgamma in mouse 3T3L1 adipocytes assessed as induction of FABP4 mRNA expression at 1 uM by qRT-PCR analysis. The format is cell-based. To be noted: 3T3-L1. (In general: Real-time PCR tracks product formation cycle by cycle.)

The species named for the next series is Homo sapiens. Description: Agonist activity at PPARgamma LBD (unknown origin)/GFP-tagged RXRalpha mutant (unknown origin) assessed as biotin-labeled CBP recruitment to […]:RXRalpha mutant fusion protein heterodimer incubated for 2 hrs by HT-FRET assay.
Series [2] addresses T2, Hepatocyte nuclear factor 4-alpha (Homo sapiens) (UniProt P41235).
T2 sequence (whole entry): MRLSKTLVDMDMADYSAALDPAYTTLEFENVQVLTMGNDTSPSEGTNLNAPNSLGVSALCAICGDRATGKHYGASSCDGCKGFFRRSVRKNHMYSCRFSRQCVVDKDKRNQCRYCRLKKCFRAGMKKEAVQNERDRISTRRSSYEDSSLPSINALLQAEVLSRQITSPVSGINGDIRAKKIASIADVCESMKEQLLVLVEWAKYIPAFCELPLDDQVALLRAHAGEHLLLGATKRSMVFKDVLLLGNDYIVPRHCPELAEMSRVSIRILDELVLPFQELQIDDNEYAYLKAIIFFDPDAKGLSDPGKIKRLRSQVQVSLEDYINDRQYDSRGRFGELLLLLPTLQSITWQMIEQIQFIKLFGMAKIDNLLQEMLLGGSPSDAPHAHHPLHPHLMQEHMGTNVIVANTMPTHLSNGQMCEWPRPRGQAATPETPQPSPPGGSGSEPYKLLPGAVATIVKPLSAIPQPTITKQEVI
Description: Agonist activity at recombinant human pFA-CMV-fused HNF4alpha LBD expressed in HEK293T cells transfected with pFR-luciferase plasmid and pRL-SV40 plasmid at 1 uM incubated for 14 to 16 hrs by dual glo luciferase reporter gene assay. The format is cell-based. Particulars: HEK-293T.

Series [3] addresses T1, Peroxisome proliferator-activated receptor gamma (Mus musculus). In words: Agonist activity at PPARgamma in mouse 3T3L1 adipocytes assessed as induction of GLUT4 mRNA expression at 1 uM by qRT-PCR analysis. The format is cell-based. Particulars: 3T3-L1.
The target in series [4] is T3, Peroxisome proliferator-activated receptor gamma (Homo sapiens) (UniProt P37231).
T3 sequence (whole entry): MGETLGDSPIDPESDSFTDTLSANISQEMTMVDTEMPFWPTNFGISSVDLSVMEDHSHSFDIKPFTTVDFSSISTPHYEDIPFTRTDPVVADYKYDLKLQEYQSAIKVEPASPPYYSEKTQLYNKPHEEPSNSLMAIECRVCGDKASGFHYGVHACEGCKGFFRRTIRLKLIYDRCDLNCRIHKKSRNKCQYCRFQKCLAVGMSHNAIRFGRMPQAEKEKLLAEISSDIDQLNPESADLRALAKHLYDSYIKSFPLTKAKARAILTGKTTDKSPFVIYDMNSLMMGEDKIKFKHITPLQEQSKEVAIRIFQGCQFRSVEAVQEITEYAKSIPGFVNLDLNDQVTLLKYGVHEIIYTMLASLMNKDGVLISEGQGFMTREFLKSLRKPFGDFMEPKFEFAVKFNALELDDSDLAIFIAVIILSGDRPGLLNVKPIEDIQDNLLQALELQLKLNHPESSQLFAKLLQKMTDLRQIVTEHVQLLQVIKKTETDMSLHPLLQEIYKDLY
Description: Agonist activity at PPARgamma in human HepG2 cells without THRA knockdown assessed as induction of CD36 expression at 1 uM incubated for 8 hrs in by Western blot analysis. The format is cell-based.

The target of series [5] is Luciferin 4-monooxygenase (Photinus pyralis) (UniProt P08659). Description: Activation of firefly luciferase expressed in HEK293T cells at 0.1 uM incubated for 14 to 16 hrs by reporter gene assay. The format is cell-based. Particulars: HEK-293T. On the technique in general: In a reporter assay the amount or activity of a reporter protein is the signal.
Chain of Luciferin 4-monooxygenase (Photinus pyralis) (P08659 whole entry, the tested form may be a part): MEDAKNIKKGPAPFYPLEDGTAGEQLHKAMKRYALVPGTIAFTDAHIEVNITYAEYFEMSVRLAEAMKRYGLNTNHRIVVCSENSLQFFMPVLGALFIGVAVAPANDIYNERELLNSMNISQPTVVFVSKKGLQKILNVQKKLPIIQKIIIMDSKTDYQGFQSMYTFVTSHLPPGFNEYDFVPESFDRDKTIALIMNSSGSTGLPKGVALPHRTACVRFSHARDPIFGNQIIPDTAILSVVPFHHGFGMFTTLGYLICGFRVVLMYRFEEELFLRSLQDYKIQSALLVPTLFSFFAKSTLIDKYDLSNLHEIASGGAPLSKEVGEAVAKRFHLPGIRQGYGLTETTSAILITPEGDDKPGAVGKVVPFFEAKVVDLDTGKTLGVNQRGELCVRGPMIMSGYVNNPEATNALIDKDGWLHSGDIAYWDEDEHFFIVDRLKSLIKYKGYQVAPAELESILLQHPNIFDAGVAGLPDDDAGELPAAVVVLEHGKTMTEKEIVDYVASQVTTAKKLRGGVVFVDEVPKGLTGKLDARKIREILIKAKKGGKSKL
The target of series [6] is T2, Hepatocyte nuclear factor 4-alpha (Homo sapiens). In words: Agonist activity at recombinant human pFA-CMV-fused HNF4alpha LBD expressed in HEK293T cells transfected with pFR-luciferase plasmid and pRL-SV40 plasmid at 0.001 to 0.3 uM incubated for 14 to 16 hrs by dual glo luciferase reporter gene assay. To be noted: HEK-293T. The format is cell-based.
Series [7] deals with T1, Peroxisome proliferator-activated receptor gamma (Mus musculus). Description: Agonist activity at PPARgamma in mouse 3T3L1 assessed as induction of adipocytes differentiation by Oil Red O staining based assay. Particulars: 3T3-L1. The format is cell-based.
For series [8], the target named is T3, Peroxisome proliferator-activated receptor gamma (Homo sapiens). In words: Agonist activity at PPARgamma in human HepG2 cells assessed as induction of CD36 mRNA expression at 10 to 30 uM incubated for 8 hrs by qPCR analysis. The format is cell-based.
For series [9], the target named is Luciferin 4-monooxygenase (Photinus pyralis) (UniProt P08659). In words: Activation of firefly luciferase expressed in HEK293T cells at 15 uM incubated for 14 to 16 hrs by reporter gene assay. The format is cell-based. To be noted: HEK-293T.
The test system of the next series is HEK-293T. Description: Activation of renilla luciferase expressed in HEK293T cells at 15 uM incubated for 14 to 16 hrs by reporter gene assay. The format is cell-based. To be noted: Renilla reniformis.
The target in series [10] is T3, Peroxisome proliferator-activated receptor gamma (Homo sapiens). Description: Agonist activity at PPARgamma in human HepG2 cells with THRB knockdown assessed as induction of CD36 expression at 30 uM incubated for 8 hrs in by Western blot analysis. The format is cell-based.
Series [11] is described as follows: Drug metabolism in human HepG2 cells assessed as 2-(4-(4-hydroxy-3-iodophenoxy)-3,5-diiodophenyl)acetic acid formation at 10 uM incubated for 24 hrs by LC-MS analysis. The format is ADME, cell-based. To be noted: hepg2, 24 h.

Take `O=C(O)Cc1cc(I)c(Oc2cc(I)c(O)c(I)c2)c(I)c1` [TETRAC]: the result (in [1]; in the series listed under Homo sapiens; in series [2]; in series [3]; in series [4]) was Active. For the same compound, the result in series [5] and in [6] was inactive. Further, the Activity entry in series [7] is “Dose-dependent effect”.

For the compound `N[C@@H](Cc1cc(I)c(Oc2cc(I)c(O)c(I)c2)c(I)c1)C(=O)O` [LEVOTHYROXINE], the result in [8] and in series [10] was Active. Also, the outcome (in series [9]; with HEK-293T) was inactive. The Drug metabolism result in [11] was “Metabolite_Notdetected”.
